Values of other authors, collected in paper PMC4931242, “Enhancing digestibility and ethanol yield of Populus wood via expression of an engineered monolignol 4-O-methyltransferase” (Nature Communications, 2016).

Biological target: T1, MOMT4 (engineered monolignol 4-O-methyltransferase) (Clarkia breweri, UniProt O04385, T133L/E165I/H169F/F175I)
T1 construct: gene IEMT1; engineered quadruple active-site variant of isoeugenol 4-O-methyltransferase; purified enzyme
Experiment: 4-O-methylation kinetics
Format: biochemical
Details: co-substrate SAM; s.d., n=3

T1 sequence (O04385 whole entry T133L/E165I/H169F/F175I): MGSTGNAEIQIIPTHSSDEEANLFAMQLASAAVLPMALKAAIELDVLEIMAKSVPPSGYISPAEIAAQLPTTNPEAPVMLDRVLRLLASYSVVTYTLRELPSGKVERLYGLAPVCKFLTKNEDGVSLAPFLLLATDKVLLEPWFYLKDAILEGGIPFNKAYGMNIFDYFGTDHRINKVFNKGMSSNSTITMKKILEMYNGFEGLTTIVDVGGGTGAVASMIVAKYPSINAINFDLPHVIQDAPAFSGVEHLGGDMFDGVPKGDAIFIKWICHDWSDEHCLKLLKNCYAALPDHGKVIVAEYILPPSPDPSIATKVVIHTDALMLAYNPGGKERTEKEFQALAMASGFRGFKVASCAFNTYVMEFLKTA

Km [µM] | Compound
68.1 ± 11.1 | COc1cc(/C=C/CO)cc(OC)c1O [sinapyl alcohol]
193 ± 24.5 | COc1cc(/C=C/CO)ccc1O [coniferyl alcohol]
